Data taken from PubChem BioAssay (NCI).
Several values for one entry are separate records, joined by “and”; a condition that tells them apart may be missing. Equal values may be shown once.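 1) Cells in 96-well plates. 2) Compound, 48 h, 5 concentrations. 3) Linear interpolation between surrounding doses. 4) Unreached endpoint = highest concentration. GI50 = concentration required for 50% inhibition of growth. At the TGI there is no net growth.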

What was measured:
Assay in all cases: NCI anticancer screen, dose series, 48 h
786-0 renal = tested on: 786-0 renal
A498 renal = tested on: A498 renal
A549 NSCLC = tested on: A549 NSCLC
ACHN renal = tested on: ACHN renal
BT-549 breast = tested on: BT-549 breast
CAKI-1 renal = tested on: CAKI-1 renal
COLO 205 colon = tested on: COLO 205 colon
DU-145 prostate = tested on: DU-145 prostate
EKVX NSCLC = tested on: EKVX NSCLC
HCC-2998 colon = tested on: HCC-2998 colon
HCT-116 colon = tested on: HCT-116 colon
HCT-15 colon = tested on: HCT-15 colon
HL-60(TB) leukemia = tested on: HL-60(TB) leukemia
HOP-62 NSCLC = tested on: HOP-62 NSCLC
HOP-92 NSCLC = tested on: HOP-92 NSCLC
HS 578T breast = tested on: HS 578T breast
HT29 colon = tested on: HT29 colon
K-562 leukemia = tested on: K-562 leukemia
KM12 colon = tested on: KM12 colon
LOX IMVI melanoma = tested on: LOX IMVI melanoma
M14 melanoma = tested on: M14 melanoma
MALME-3M melanoma = tested on: MALME-3M melanoma
MCF7 breast = tested on: MCF7 breast
MDA-MB-231 breast = tested on: MDA-MB-231 breast
MDA-MB-435 = tested on: MDA-MB-435
MDA-MB-468 breast = tested on: MDA-MB-468 breast
MOLT-4 leukemia = tested on: MOLT-4 leukemia
NCI-H226 lung = tested on: NCI-H226 lung
NCI-H23 lung = tested on: NCI-H23 lung
NCI-H460 lung = tested on: NCI-H460 lung
NCI-H522 lung = tested on: NCI-H522 lung
OVCAR-3 ovarian = tested on: OVCAR-3 ovarian
OVCAR-4 ovarian = tested on: OVCAR-4 ovarian
OVCAR-5 ovarian = tested on: OVCAR-5 ovarian
OVCAR-8 ovarian = tested on: OVCAR-8 ovarian
PC-3 prostate = tested on: PC-3 prostate
RPMI-8226 leukemia = tested on: RPMI-8226 leukemia
RXF 393 renal = tested on: RXF 393 renal
SF-268 CNS = tested on: SF-268 CNS
SF-295 CNS = tested on: SF-295 CNS
SF-539 CNS = tested on: SF-539 CNS
SK-MEL-2 melanoma = tested on: SK-MEL-2 melanoma
SK-MEL-28 melanoma = tested on: SK-MEL-28 melanoma
SK-MEL-5 melanoma = tested on: SK-MEL-5 melanoma
SK-OV-3 ovarian = tested on: SK-OV-3 ovarian
SN12C renal = tested on: SN12C renal
SNB-19 CNS = tested on: SNB-19 CNS
SNB-75 CNS = tested on: SNB-75 CNS
SR leukemia = tested on: SR leukemia
SW-620 colon = tested on: SW-620 colon
T-47D breast = tested on: T-47D breast
TK-10 renal = tested on: TK-10 renal
U251 CNS = tested on: U251 CNS
UACC-257 melanoma = tested on: UACC-257 melanoma
UACC-62 melanoma = tested on: UACC-62 melanoma

COc1cc(C2CC(c3ccc(Cl)cc3)=Nc3c(N)nc(N)nc3N2)ccc1Oc1nc(Nc2ccc(F)cc2)nc(N(C)C)n1 (stereo not given)
GI50 (786-0 renal): > 100 µM | TGI (786-0 renal): > 100 µM | GI50 (A498 renal): > 100 µM | TGI (A498 renal): > 100 µM | GI50 (A549 NSCLC): > 100 µM | TGI (A549 NSCLC): > 100 µM | GI50 (ACHN renal): > 100 µM | TGI (ACHN renal): > 100 µM | GI50 (BT-549 breast): 35.5 µM | TGI (BT-549 breast): > 100 µM | GI50 (CAKI-1 renal): 3.38 µM | TGI (CAKI-1 renal): > 100 µM | GI50 (COLO 205 colon): > 100 µM | TGI (COLO 205 colon): > 100 µM | GI50 (DU-145 prostate): > 100 µM | TGI (DU-145 prostate): > 100 µM | GI50 (EKVX NSCLC): > 100 µM | TGI (EKVX NSCLC): > 100 µM | GI50 (HCC-2998 colon): 45.3 µM | TGI (HCC-2998 colon): > 100 µM | GI50 (HCT-116 colon): 12.5 µM | TGI (HCT-116 colon): > 100 µM | GI50 (HCT-15 colon): 76.6 µM | TGI (HCT-15 colon): > 100 µM | GI50 (HL-60(TB) leukemia): 44.7 µM | TGI (HL-60(TB) leukemia): > 100 µM | GI50 (HOP-62 NSCLC): > 100 µM | TGI (HOP-62 NSCLC): > 100 µM | GI50 (HOP-92 NSCLC): 3 µM | TGI (HOP-92 NSCLC): > 100 µM | GI50 (HS 578T breast): 84.8 µM | TGI (HS 578T breast): > 100 µM | GI50 (HT29 colon): 29.4 µM | TGI (HT29 colon): > 100 µM | GI50 (K-562 leukemia): 4.5 µM | TGI (K-562 leukemia): > 100 µM | GI50 (KM12 colon): 40.1 µM | TGI (KM12 colon): > 100 µM | GI50 (LOX IMVI melanoma): 47.8 µM | TGI (LOX IMVI melanoma): > 100 µM | GI50 (M14 melanoma): > 100 µM | TGI (M14 melanoma): > 100 µM | GI50 (MALME-3M melanoma): > 100 µM | TGI (MALME-3M melanoma): > 100 µM | GI50 (MCF7 breast): 9.91 µM | TGI (MCF7 breast): > 100 µM | GI50 (MDA-MB-231 breast): 6.73 µM | TGI (MDA-MB-231 breast): > 100 µM | GI50 (MDA-MB-435): > 100 µM | TGI (MDA-MB-435): > 100 µM | GI50 (MDA-MB-468 breast): 17.8 µM | TGI (MDA-MB-468 breast): > 100 µM | GI50 (MOLT-4 leukemia): 8.54 µM | TGI (MOLT-4 leukemia): > 100 µM | GI50 (NCI-H226 lung): > 100 µM | TGI (NCI-H226 lung): > 100 µM | GI50 (NCI-H23 lung): > 100 µM | TGI (NCI-H23 lung): > 100 µM | GI50 (NCI-H460 lung): 42.3 µM | TGI (NCI-H460 lung): > 100 µM | GI50 (NCI-H522 lung): > 100 µM | TGI (NCI-H522 lung): > 100 µM | GI50 (OVCAR-3 ovarian): > 100 µM | TGI (OVCAR-3 ovarian): > 100 µM | GI50 (OVCAR-4 ovarian): 18.9 µM | TGI (OVCAR-4 ovarian): > 100 µM | GI50 (OVCAR-5 ovarian): > 100 µM | TGI (OVCAR-5 ovarian): > 100 µM | GI50 (OVCAR-8 ovarian): > 100 µM | TGI (OVCAR-8 ovarian): > 100 µM | GI50 (PC-3 prostate): 6.16 µM | TGI (PC-3 prostate): > 100 µM | GI50 (RPMI-8226 leukemia): 26.4 µM | TGI (RPMI-8226 leukemia): > 100 µM | GI50 (RXF 393 renal): 2.46 µM | TGI (RXF 393 renal): > 100 µM | GI50 (SF-268 CNS): > 100 µM | TGI (SF-268 CNS): > 100 µM | GI50 (SF-295 CNS): > 100 µM | TGI (SF-295 CNS): > 100 µM | GI50 (SF-539 CNS): > 100 µM | TGI (SF-539 CNS): > 100 µM | GI50 (SK-MEL-2 melanoma): > 100 µM | TGI (SK-MEL-2 melanoma): > 100 µM | GI50 (SK-MEL-28 melanoma): > 100 µM | TGI (SK-MEL-28 melanoma): > 100 µM | GI50 (SK-MEL-5 melanoma): 17.2 µM | TGI (SK-MEL-5 melanoma): 52 µM | GI50 (SK-OV-3 ovarian): > 100 µM | TGI (SK-OV-3 ovarian): > 100 µM | GI50 (SN12C renal): > 100 µM | TGI (SN12C renal): > 100 µM | GI50 (SNB-19 CNS): > 100 µM | TGI (SNB-19 CNS): > 100 µM | GI50 (SNB-75 CNS): 3.24 µM | TGI (SNB-75 CNS): > 100 µM | GI50 (SR leukemia): 3.41 µM | TGI (SR leukemia): > 100 µM | GI50 (SW-620 colon): > 100 µM | TGI (SW-620 colon): > 100 µM | GI50 (T-47D breast): > 100 µM | TGI (T-47D breast): > 100 µM | GI50 (TK-10 renal): > 100 µM | TGI (TK-10 renal): > 100 µM | GI50 (U251 CNS): > 100 µM | TGI (U251 CNS): > 100 µM | GI50 (UACC-257 melanoma): > 100 µM | TGI (UACC-257 melanoma): > 100 µM | GI50 (UACC-62 melanoma): > 100 µM | TGI (UACC-62 melanoma): > 100 µM

Oc1cccc2ccc(-c3nnc(SCc4ccc(O)c5ncccc45)n3-c3ccccc3)nc12
GI50 (MDA-MB-468 breast): 0.813 µM | TGI (MDA-MB-468 breast): 9.52 µM

CS(=O)(=O)CCNCc1ccc(-c2ccc3ncnc(Nc4ccc(OCc5cccc(F)c5)c(C(F)(F)F)c4)c3c2)o1
GI50 (MDA-MB-468 breast): 1.42 µM | TGI (MDA-MB-468 breast): 6.09 µM

COc1cc(Nc2ncc(F)c(Nc3ccc4c(n3)NC(=O)C(C)(C)O4)n2)cc(OC)c1OC
GI50 (MDA-MB-468 breast): 8.5 µM and 4.91 µM | TGI (MDA-MB-468 breast): > 100 µM

CS(=O)(=O)Nc1cccc(-c2cc(-c3ccccc3Cl)c(C#N)c(N)n2)c1
GI50 (MDA-MB-468 breast): 1.19 µM | TGI (MDA-MB-468 breast): 7.75 µM

Nc1ncnc2c1c(-c1cccc(OCc3ccccc3)c1)cn2C1CC(CN2CCC2)C1 (stereo not given)
GI50 (MDA-MB-468 breast): 1.96 µM and 2.14 µM | TGI (MDA-MB-468 breast): 5.98 µM and 8.79 µM

CCCCCCCCCc1cc[n+](CC(=O)c2ccc([N+](=O)[O-])cc2)cc1
GI50 (MDA-MB-468 breast): 0.446 µM | TGI (MDA-MB-468 breast): 1.75 µM

CCCc1cc2cc(-n3nc(CC)c4c3CC(C)(C)CC4=O)cc(NC3CCC(O)CC3)c2c(=O)[nH]1 (stereo not given)
GI50 (MDA-MB-468 breast): 0.212 µM | TGI (MDA-MB-468 breast): > 100 µM

CC(=O)N1c2ccccc2NC2=C(C(=O)N(Cc3ccccc3)C2(C)C)C1c1ccco1 (stereo not given)
GI50 (MDA-MB-468 breast): 0.0897 µM | TGI (MDA-MB-468 breast): > 25 µM

CCCCCCCCCCCCCCCC[N+](C)(CCO)Cc1cnc[nH]1 (stereo not given)
GI50 (MDA-MB-468 breast): 0.396 µM | TGI (MDA-MB-468 breast): 10.1 µM

CCN(CC)c1ccc2c(c1)Oc1nc(N)c(C#N)c(N)c1C2Sc1ccc(OC)cc1 (stereo not given)
GI50 (MDA-MB-468 breast): 1.85 µM | TGI (MDA-MB-468 breast): 3.51 µM
